Data published in patent US20210346357A1 (priority 2020, published 2021).
Several values for one entry are separate records, joined by “and”; a condition that tells them apart may be missing. Equal entries are not always repeated.

Tested on: Symptomatic Acute Lung Injury Associated with COVID-19
Assay: Phase 2 study Part 1, inhaled compound 1 in hospitalized COVID-19 patients
Conditions: COVID-19 patients; for Modified Borg Dyspnea Score, Baseline, Mean: baseline value
[1] = 1 mg, matched D1 and D7 samples

Which results are given for `CCc1cc(O)ccc1-c1ccc2c(-c3nc4c([nH]3)CN(C(C)C)[C@H](C(=O)N3CC(N(C)C)C3)C4)n[nH]c2c1` [Compound 1, (S)-(3-(dimethylamino)azetidin-1-yl)(2-(6-(2-ethyl-4-hydroxyphenyl)-1H-indazol-3-yl)-5-isopropyl-4,5,6,7-tetrahydro-3H-imidazo[4,5-c]pyridin-6-yl)methanone]?
exposures provided by the loading dose on Day 1: consistent with pseudo steady-state; Clinical Status at Day 28: 1-Not hospitalized, no limitations on activities, number (1 mg): 5; Clinical Status at Day 28: 1-Not hospitalized, no limitations on activities, percent (1 mg): 83.3%; Clinical Status at Day 28: 2-Not hospitalized, but with limitations on activities and/or requiring home oxygen, number (1 mg): 0; Clinical Status at Day 28: 3-Hospitalized, not requiring supplemental oxygen, and no longer requiring ongoing medical care, number (1 mg): 0; Clinical Status at Day 28: 4-Hospitalized, not requiring supplemental oxygen, but requiring ongoing medical care, number (1 mg): 0; Clinical Status at Day 28: 5-Hospitalized, requiring supplemental oxygen, number (1 mg): 0; Clinical Status at Day 28: 6-Hospitalized, on non-invasive ventilation or high-flow oxygen devices, number (1 mg): 0; Clinical Status at Day 28: 7-Hospitalized, on invasive mechanical ventilation or extracorporeal membrane oxygenation, number (1 mg): 0; Clinical Status at Day 28: 8-Death, number (1 mg): 1; Clinical Status at Day 28: 8-Death, percent (1 mg): 16.7%; Still in Hospital at Day 28, number (1 mg): 0; Time to Hospital Discharge (Days) Median (1 mg): 18.5 days; Modified Borg Dyspnea Score, Baseline, Mean (1 mg group): 6.17; Modified Borg Dyspnea Score Change from Baseline, Mean (1 mg, Day 2): 0.33; Modified Borg Dyspnea Score Change from Baseline, Mean (1 mg, Day 3): −0.33; Modified Borg Dyspnea Score Change from Baseline, Mean (1 mg, Day 4): −0.83; Modified Borg Dyspnea Score Change from Baseline, Mean (1 mg, Day 5): −1.17; Modified Borg Dyspnea Score Change from Baseline, Mean (1 mg, Day 6): −1.33; Hospital Discharge, number (1 mg, Day 7): 0; Modified Borg Dyspnea Score Change from Baseline, Mean (1 mg, Day 7): −1.50; Hospital Discharge, number (1 mg, Day 14): 2; Hospital Discharge, percent (1 mg, Day 14): 33.3%; Hospital Discharge, number (1 mg, Day 21): 3; Hospital Discharge, percent (1 mg, Day 21): 50.0%; # Subjects Respiratory Failure-Free, percent (1 mg, Day 28): 83.3%; Hospital Discharge, number (1 mg, Day 28): 5; Hospital Discharge, percent (1 mg, Day 28): 83.3%; Proportion of Subjects Alive and Respiratory Failure-free (1 mg, Day 28): 83.3%; Proportion of Subjects Alive and Respiratory Failure-free, number (1 mg, Day 28): 5; # Subjects Respiratory Failure-Free (1 mg, Day 28, number of subjects): 5; IFN-γ, within-group percent difference in geometric mean from baseline [1]: −46.12%; IL-6, within-group percent difference in geometric mean from baseline [1]: 29.45%; IL-8, within-group percent difference in geometric mean from baseline [1]: −16.78%; IL-10, within-group percent difference in geometric mean from baseline [1]: −26.59%; IP-10, within-group percent difference in geometric mean from baseline [1]: −20.65%; MCP-1, within-group percent difference in geometric mean from baseline [1]: 13.90%; MDC, within-group percent difference in geometric mean from baseline [1]: −55.03%; RAGE, within-group percent difference in geometric mean from baseline [1]: −14.22%; TARC, within-group percent difference in geometric mean from baseline [1]: −57.21%; hsCRP, within-group percent difference in geometric mean from baseline [1]: −34.85%; Time to Hospital Discharge (Days) Mean ± SD (1 mg, still hospitalized or died = 28 days): 18.83 ± 6.795 days; # Subjects Alive, percent (1 mg, through Day 28): 83.3%; Died (All-Cause Mortality), percent (1 mg, through Day 28): 16.7%; # Subjects Alive (1 mg, through Day 28, number of subjects): 5; Clinical Status at Day 28: 1-Not hospitalized, no limitations on activities, number (3 mg): 5; Clinical Status at Day 28: 1-Not hospitalized, no limitations on activities, percent (3 mg): 83.3%; Clinical Status at Day 28: 2-Not hospitalized, but with limitations on activities and/or requiring home oxygen, number (3 mg): 0; Clinical Status at Day 28: 3-Hospitalized, not requiring supplemental oxygen, and no longer requiring ongoing medical care, number (3 mg): 0; Clinical Status at Day 28: 4-Hospitalized, not requiring supplemental oxygen, but requiring ongoing medical care, number (3 mg): 1; Clinical Status at Day 28: 4-Hospitalized, not requiring supplemental oxygen, but requiring ongoing medical care, percent (3 mg): 16.7%; Clinical Status at Day 28: 5-Hospitalized, requiring supplemental oxygen, number (3 mg): 0; Clinical Status at Day 28: 6-Hospitalized, on non-invasive ventilation or high-flow oxygen devices, number (3 mg): 0; Clinical Status at Day 28: 7-Hospitalized, on invasive mechanical ventilation or extracorporeal membrane oxygenation, number (3 mg): 0; Clinical Status at Day 28: 8-Death, number (3 mg): 0; Still in Hospital at Day 28, number (3 mg): 0; Time to Hospital Discharge (Days) Median (3 mg): 17.0 days; Modified Borg Dyspnea Score, Baseline, Mean (3 mg group): 6.71; Modified Borg Dyspnea Score Change from Baseline, Mean (3 mg, Day 2): −0.43; Modified Borg Dyspnea Score Change from Baseline, Mean (3 mg, Day 3): −1.00; Modified Borg Dyspnea Score Change from Baseline, Mean (3 mg, Day 4): −0.50; Modified Borg Dyspnea Score Change from Baseline, Mean (3 mg, Day 5): −1.20; Modified Borg Dyspnea Score Change from Baseline, Mean (3 mg, Day 6): −1.20; Hospital Discharge, number (3 mg, Day 7): 1; Hospital Discharge, percent (3 mg, Day 7): 14.3%; Modified Borg Dyspnea Score Change from Baseline, Mean (3 mg, Day 7): −1.80; Hospital Discharge, number (3 mg, Day 14): 2; Hospital Discharge, percent (3 mg, Day 14): 28.6%; Hospital Discharge, number (3 mg, Day 21): 6; Hospital Discharge, percent (3 mg, Day 21): 86% and 85.7%; # Subjects Respiratory Failure-Free, percent (3 mg, Day 28): 85.7%
